Measurements published in publication PMC11345774, “Discovery of Novel, Selective, and Nonbasic Agonists for the Kappa-Opioid Receptor Determined by Salvinorin A-Based Virtual Screening” (Journal of Medicinal Chemistry, 2024).
Where two headings read alike, the source gives them in different places.

What was measured:
human MOR = molecular target: T1, human MOR (Homo sapiens, UniProt P35372); format: binding
T1 construct: expressed in transfected cells; host or cells: CHO cells (CHO-hMOR), gift of Lawrence Toll, SRI International

human DOR = molecular target: T2, human DOR (Homo sapiens, UniProt P41143); assay: Radioligand competitive binding assay with [3H]DPDPE, membranes from CHO-hDOR cells; settings: compound at 10 μM
T2 construct: expressed in transfected cells; host or cells: CHO cells (CHO-hDOR), gift of Lawrence Toll, SRI International

human KOR [1] = molecular target: T3, human KOR (Homo sapiens, UniProt P41145); assay: PathHunter β-arrestin2 recruitment assay, U2OS-hKOR-β-arrestin2 cells; format: cell-based; settings: for EC50: U2OS cells coexpressing hKOR and β-arrestin2, tested up to 10 μM, read-out: β-arrestin2 recruitment EC50 (dash symbol)
human KOR [2] = molecular target: T3, human KOR; assay: [35S]GTPγS binding assay (G protein activation), CHO-hKOR cell membranes; format: biochemical; settings: for Emax: read-out: G protein activation Emax
human KOR [3] = molecular target: T3, human KOR; assay: Radioligand competitive binding assay with [3H]U69,593, membranes from CHO-hKOR cells; settings: for Ki: read-out: binding affinity Ki; for inhibition at 10 µM: read-out: inhibition of [3H]U69,593 binding at the KOR
human KOR [4] = molecular target: T3, human KOR; assay: [35S]GTPγS binding assay, antagonist study: inhibition of U69,593-induced stimulation, CHO-hKOR membranes; format: biochemical; settings: U69,593 1 μM; read-out: inhibition of U69,593-induced stimulation of [35S]GTPγS binding, Inhibition
human KOR [5] = molecular target: T3, human KOR; assay: as above; format: biochemical; settings: U69,593 1 μM
KOR = settings: cited from earlier work
human KOR [6] = molecular target: T3, human KOR; assay: [35S]GTPγS binding assay, antagonist study: inhibition of U69,593-induced stimulation, CHO-hKOR membranes; format: biochemical; parameters: dose or concentration left out as unconfirmed; settings: read-out: inhibition of U69,593-induced stimulation of [35S]GTPγS binding, Inhibition

| Compound | binding at the MOR (human MOR) | binding at the DOR (human DOR) | β-arrestin2 recruitment upon activation of the KOR (in words) (human KOR [1]) | EC50 (human KOR [1]) | EC50 (human KOR [2]) | Ki (human KOR [3]) | also measured |
| --- | --- | --- | --- | --- | --- | --- | --- |
| Cc1cc2n(n1)C1(CCN(C(=O)c3cccc(F)c3)CC1)CC(=O)N2CC1CC1 [SalA-VS-08] | no substantial binding | no substantial binding | failed to induce β-arrestin2 recruitment | > 10 µM | 0.854 ± 0.06 µM | 0.0685 ± 0.0055 µM | lower agonist potency at the KOR compared to SalA-VS-07 (human KOR [2]): 5 fold; Emax (human KOR [2]): 108 ± 8%; increased affinity at the KOR than SalA-VS-07 (human KOR [3]): about 6 fold; inhibition at 10 µM (human KOR [3]): > 50% |
| Cc1cc2n(n1)C1(CCN(C(=O)c3ccncc3)CC1)CC(=O)N2CC1CC1 [SalA-VS-09] | – | – | – | – | – | – | KOR activity (in words) (human KOR [3]; binding screen at 10 μM): inactive |
| Cc1cc2n(n1)C1(CCN(C(=O)c3ccc(Cl)cc3)CC1)CC(=O)N2CC1CC1 [SalA-VS-07] | no substantial binding | no substantial binding | failed to induce β-arrestin2 recruitment | > 10 µM | 0.181 ± 0.049 µM | 0.423 ± 0.097 µM | inhibition (human KOR [4]): 52 ± 4%; Emax (human KOR [2]; relative to maximal effect of U69,593 (as 100%)): 48 ± 7%; IC50 (human KOR [5]): 1.27 ± 0.334 µM; inhibition at 10 µM (human KOR [3]; compound at 10 μM): > 50% |
| COC(=O)[C@@H]1C[C@H](O)C(=O)[C@H]2[C@@]1(C)CC[C@H]1C(=O)O[C@H](c3ccoc3)C[C@]21C [SalB, Salvinorin B] | – | – | – | – | – | – | activity at the KOR (in words) (KOR): inactive |
| CCO[C@@]12Cc3c([nH]c4ccccc34)[C@]3(C)Oc4c(O)ccc5c4[C@@]31CCN(CC1CC1)C2C5 [HS378, reference compound] | – | significant binding | – | – | – | – | – |
| Oc1ccc2c3c1O[C@H]1c4[nH]c5c(c4C[C@@]4(O)[C@@H](C2)N(CC2CC2)CC[C@]314)C[C@@]1(O)[C@H]2Cc3ccc(O)c4c3[C@@]1(CCN2CC1CC1)[C@H]5O4 [nor-BNI, nor-binaltorphimine, reference compound] | – | – | – | – | – | – | inhibition (human KOR [6]): 92 ± 6% |
